These results are taken from ChEMBL document CHEMBL1134256, “Anticancer activity of synthetic analogues of the phorboxazoles” (Bioorg Med Chem Lett, 2001).

Test [1] deals with BT-20. Kind of test: Effect on proliferation of human breast cancer cell line BT-20 by MTT assay method. Type of test: functional, cell-based.
Test [2] deals with Candida albicans. Kind of test: In vitro growth inhibitory concentration for antifungal activity against Candida albicans. Type of test: functional.
Test [3] has as its system NALM-6. Nature of the test: Effect on proliferation of human B-lineage acute lymphoblastic leukemia cell line NALM-6 by MTT assay method. Type of test: functional, cell-based. In general terms: Formazan colour is commonly taken as a measure of viable cells.
Test [4] concerns Saccharomyces pastorianus. Kind of test: In vitro growth inhibitory concentration for antifungal activity against Saccharomyces carlsbergensis. Type of test: functional.
Test [5] relates to U373 MG. Kind of test: Effect on proliferation of human brain tumor (glioblastoma) cell line U373 by MTT assay method. Type of test: functional, cell-based, U-373MG ATCC.
In test [6] the test system is BT-20. Kind of test: In vitro anticlonogenic effect on human breast cancer cell line BT-20 at 10 nM concentration. Type of test: functional.
In test [7] the test system is BT-20. Nature of the test: In vitro anticlonogenic effect on human breast cancer cell line BT-20 at 1 nM concentration. Type of test: functional.
For test [8], the system named is BT-20. Kind of test: In vitro anticlonogenic effect on human breast cancer cell line BT-20 at 10 nM concentration,. Type of test: functional.
Test [9] relates to BT-20. Nature of the test: In vitro anticlonogenic effect on human breast cancer cell line BT-20 at 100 nM concentration. Type of test: functional.
In test [10] the test system is NALM-6. Kind of test: In vitro anticlonogenic effect on human B-lineage acute lymphoblastic leukemia cell line NALM-6 at 10 nM concentration. Type of test: functional.
The test system of test [11] is NALM-6. Kind of test: In vitro anticlonogenic effect on human B-lineage acute lymphoblastic leukemia cell line NALM-6 at 100 nM concentration. Type of test: functional.
For test [12], the system named is NALM-6. Nature of the test: In vitro anticlonogenic effect on human B-lineage acute lymphoblastic leukemia cell line NALM-6 at 1 nM concentration. Type of test: functional.
In test [13] the test system is U373 MG. Kind of test: In vitro anticlonogenic effect on human brain tumor (glioblastoma) cell line U373 at 100 nM concentration. Type of test: functional, U-373MG ATCC.
Test [14] concerns U373 MG. Nature of the test: In vitro anticlonogenic effect on human brain tumor (glioblastoma) cell line U373 at 10 nM concentration. Type of test: functional, U-373MG ATCC.
Test [15] has as its system BT-20. Kind of test: In vitro anticlonogenic effect on human breast cancer cell line BT-20 100 nM concentration. Type of test: functional.
Test [16] deals with BT-20. Nature of the test: In vitro anticlonogenic effect on human breast cancer cell line BT-20 10 nM concentration. Type of test: functional.
Test [17] relates to BT-20. Nature of the test: In vitro anticlonogenic effect on human breast cancer cell line BT-20 1 nM concentration. Type of test: functional.
The test system of test [18] is Saccharomyces pastorianus. Kind of test: In vitro growth inhibitory concentration against Saccharomyces carlsbergensis. Type of test: functional.
In test [19] the test system is U373 MG. Kind of test: In vitro anticlonogenic effect on human brain tumor (glioblastoma) cell line U373 10 nM concentration e. Type of test: functional, U-373MG ATCC.
The test system of test [20] is Candida albicans. Nature of the test: In vitro growth inhibitory concentration against Candida albicans. Type of test: functional.
Test [21] deals with U373 MG. Kind of test: In vitro anticlonogenic effect on human brain tumor (glioblastoma) cell line U373 100 nM concentration. Type of test: functional, U-373MG ATCC.

Take `COC(=O)/C=C/C[C@H]1O[C@@H](/C(C)=C/c2coc(C[C@]3(O)C[C@H](OC)C[C@H]([C@H](O)/C=C(C)/C=C/[C@@H](C/C=C/Br)OC)O3)n2)[C@H](C)[C@@H](OC(C)=O)[C@H]1C`: the IC50 in the test on BT-20 [1], in the test on NALM-6 [3] and in the test with U373 MG [5] was > 2000 nM in each case. Also, the GI50 (with Candida albicans [2]; in test [4]) was 1.6 nM in each case.
Take `C=C1C[C@@H]2C[C@@H]3C[C@@H](O)C[C@@H](O3)c3coc(n3)/C=C/C[C@H]3O[C@@H](/C(C)=C/c4coc(C[C@]5(O)C[C@H](OC)C[C@H](CO)O5)n4)[C@H](C)[C@@H](OC(=O)/C=C\C[C@@H](C1)O2)[C@H]3C`: the IC50 in the test on BT-20 [1], in the test with NALM-6 [3] and in the test on U373 MG [5] was > 2000 nM in each case. For the same molecule, the GI50 (in the test with Candida albicans [2]; in test [4]) was 1.6 nM in each case.
Regarding `C=C1C[C@@H]2C[C@@H]3C[C@@H](O)C[C@@H](O3)c3coc(n3)/C=C/C[C@H]3O[C@@H](/C(C)=C/c4coc(C[C@]5(O)C[C@H](OC)C[C@H]([C@H](O)/C=C(C)/C=C/[C@@H](C/C=C/Br)OC)O5)n4)[C@H](C)[C@@H](OC(=O)/C=C\C[C@@H](C1)O2)[C@H]3C`, the IC50 – broadly, the concentration that inhibits the measured activity by half – stood at 3.4 nM in the test on BT-20 [1], 1.7 nM in the test with NALM-6 [3] and 6.7 nM with U373 MG [5]. Moreover, the Mean no. colonies in the test on BT-20 [6] was 0 10e4*cells; in the test on BT-20 [7] it was 1070 10e4*cells; in the test with BT-20 [9], 0 10e4*cells; with NALM-6 [10] it was 0 10e4*cells; in the test with NALM-6 [11] it was 0 10e4*cells; in the test on NALM-6 [12], 270 10e4*cells. The Mean no. colonies in the test on U373 MG [13] is recorded as 0 10e4*cells; in the test on U373 MG [14], 378 10e4*cells. In addition, the inhibition at 0.01 µM with BT-20 [8] and with NALM-6 [10] was > 99.9% each time. Further, the inhibition at 0.1 µM in the test with BT-20 [9], with NALM-6 [11] and in the test with U373 MG [13] was > 99.9% throughout. For the same molecule, the GI50 (in the test with Candida albicans [2]; in test [4]) was 1.6 nM in each case.
Regarding `C#CC[C@H](/C=C/C(C)=C/[C@@H](O)[C@H]1C[C@@H](OC)C[C@@](O)(Cc2nc(/C=C(\C)[C@@H]3O[C@@H]4C/C=C/c5nc(co5)[C@H]5C[C@H](O)C[C@@H](C[C@H]6CC(=C)C[C@H](C/C=C\C(=O)O[C@@H]([C@H]4C)[C@H]3C)O6)O5)co2)O1)OC`, the IC50 was found to be 12.6 nM in the test on BT-20 [1], 4.8 nM in the test on NALM-6 [3] and 27.4 nM in the test on U373 MG [5]. Moreover, the Mean no. colonies in the test with BT-20 [15] is listed as 0 10e4*cells; with BT-20 [16], 1062 10e4*cells; in the test on BT-20 [17] it was 1540 10e4*cells; in the test on NALM-6 [10], 293 10e4*cells; in the test with NALM-6 [11], 0 10e4*cells; in the test with NALM-6 [12], 2116 10e4*cells. The Mean no. colonies with U373 MG [19] was 586 10e4*cells; in the test with U373 MG [21], 144 10e4*cells. Besides, the GI50 (in [18]; in the test on Candida albicans [20]) was 1.6 nM each time.
Take `C=C1C[C@@H]2C[C@@H]3C[C@@H](O)C[C@@H](O3)c3coc(n3)/C=C/C[C@H]3O[C@@H](/C(C)=C/[C@H](CO)NC(=O)C[C@]4(O)C[C@H](OC)C[C@H]([C@H](O)/C=C(C)/C=C/[C@@H](C/C=C/Br)OC)O4)[C@H](C)[C@@H](OC(=O)/C=C\C[C@@H](C1)O2)[C@H]3C`: the IC50 in the test with BT-20 [1], in the test on NALM-6 [3] and in the test with U373 MG [5] was > 2000 nM in each case. The GI50 (in the test on Candida albicans [2]; in test [4]) was 1.6 nM throughout.
With `C=C1C[C@@H]2C[C@@H]3C[C@@H](O)C[C@@H](O3)c3coc(n3)/C=C/C[C@H]3O[C@@H](/C(C)=C/c4coc(C[C@]5(OC)C[C@H](OC)C[C@H]([C@H](O)/C=C(C)/C=C/[C@@H](C/C=C/Br)OC)O5)n4)[C@H](C)[C@@H](OC(=O)/C=C\C[C@@H](C1)O2)[C@H]3C`, the IC50 stood at 11.3 nM in the test on BT-20 [1], 5.2 nM in the test with NALM-6 [3] and 29.2 nM in the test on U373 MG [5]. Moreover, the Mean no. colonies in the test on BT-20 [6] was 1430 10e4*cells; in the test on BT-20 [7], 1824 10e4*cells; with BT-20 [9], 0 10e4*cells; with NALM-6 [10] it was 422 10e4*cells; in the test on NALM-6 [11], 0 10e4*cells; in the test on NALM-6 [12] it was 1760 10e4*cells. Further, the values for the Mean no. colonies in the test on U373 MG [13] and with U373 MG [14] were 0 10e4*cells and 578 10e4*cells, respectively. Moreover, the GI50 (in the test with Candida albicans [2]; in [4]) was 1.6 nM throughout.
As to `COC(=O)C[C@]1(O)C[C@H](OC)C[C@H]([C@H](O)/C=C(C)/C=C/[C@@H](C/C=C/Br)OC)O1`, the IC50 in the test on BT-20 [1], with NALM-6 [3] and in the test with U373 MG [5] was > 2000 nM in each case. For the same molecule, the GI50 (in the test on Candida albicans [2]; in test [4]) was 1.6 nM throughout.
